Laboratory results: patent publication US7989176B2, “Treating cancer” (Theryte Ltd., priority 2002, dated 2011)

Experiments:
advanced gastric cancer = conditions: completed phase II study, patients with advanced gastric cancer (Kaubisch et al. 2000); cited from earlier work
HCT116 cells [1] = experiment: TUNEL assay for apoptosis (ApopTag kit); type: cell-based; conditions: 48 h after transfection
Experimental: (§1) Sense and antisense phosphorothionate oligonucleotide with the sequence set out in SEQ1 and SEQ2 respectively were synthesised in a 380B DNA synthesiser. Each oligonucleotide was premixed with lipofectin reagent and diluted in DMEM (Gibco). 6 cm plates of HCT116 cells at 40-50% confluence were rinsed once with 4 ml serum free DMEM and transfected with the oligonucleotides at a final concentration of 1 μM and the lipofectin reagent at a final concentration of 19 μg/ml according to the manufacturer's instructions (Life Technologies Inc., Gaithersburg, Md.). After 4 hours, Foetal Calf Serum (Gibco) was added to a final concentration of 10%. A lipofectin only transfection was performed as a control. Cell extracts were harvested after 48 h and examined by Western blot analysis with a pRb antibody. Equal loading of protein samples was confirmed by Coomassie blue staining or by immunoreactivity with an anti-actin antibody (Sigma). The intensities of the Rb bands were quantised with an image scanner (Molecular Dynamics). […] The treatment with the sense oligonucleotide led to about a 5% reduction in the level of pRb. […] Apoptosis in the cultures 48 h after transfection was tested for using the TUNEL assay. An in situ apoptosis detection kit ApopTag (Oncor, Gaithersburg, Md.) was used as recommended by the manufacturer. […]

HCT116 cells [2] = experiment: Growth curves of transfected cultures; type: cell-based; conditions: oligonucleotide 1 μM
Experimental: as §1

pRb = experiment: Western blot analysis of pRb expression after oligonucleotide transfection; type: cell-based; conditions: HCT116 cells, oligonucleotide 1 μM with lipofectin 19 μg/ml, extracts harvested after 48 h
Experimental: as §1

CN1CC[C@H](c2c(O)cc(O)c3c(=O)cc(-c4ccccc4Cl)oc23)[C@H](O)C1 [flavopiridol]
clinical responses (advanced gastric cancer): no clinical responses were observed

antisense oligonucleotide: antisense phosphorothionate oligonucleotide to Rb, sequence SEQ2: 5′ -GGTTTTGGGCGGCATGAC-3′ (DNA, all phosphorothioate, methylation of C not given here)
increase in apoptosis (HCT116 cells [1]; versus lipofectin treated culture): > 10 fold | percentage of TUNEL positive cells (HCT116 cells [1]; oligonucleotide 1 μM): 18+/−0.5% | effect on growth compared with the lipofectin-treated control culture (HCT116 cells [2]): growth inhibition | level of pRb expression relative to the control culture treated only with lipofectin (pRb): about 30%
